Assay results: patent US9738932B2, “Biomarkers for cardiovascular side-effects induced by cox-2 inhibitory compounds” (FIRALIS SAS, priority 2005, dated 2017)

Test system: mRNA expression in cardiovascular tissues
Assay: Affymetrix GeneChip mRNA expression profiling of monkey tissues (iliac vein, pulmonary vein, aorta, carotid artery, heart) after two-week oral-gavage treatment
Settings: iliac vein; group avg, Vioxx without A60055
Protocol: Administration of compounds. A two-week oral-gavage treatment with the Cox-2 specific inhibitor COX189 (Lumiracoxib®, Novartis) in comparison with rofecoxib (Vioxx®, Merck), and celecoxib (Celebrex®, Pharmacia/Pfizer), and with the nonselective NSAID, diclofenac (Voltaren®, Novartis) was performed. […] The test items were administered daily at doses of 100 mg/kg/day, except Vioxx® which was administered at 50 mg/kg/day.
Gene expression profiles. After a period of time (e.g., four weeks) of compound/drug administration, the treated animals are necropsied. 120 tissues are dissected and rapidly snap-frozen for genomics analysis. Organ samples are isolated for histopathological examinations and for gene expression localizations, such as by in situ hybridization.
Gene expression profiles have been generated using the Affymetrix microarray technology. (i) RNA extraction and purification: Briefly, total RNA was obtained by acid guanidinium thiocyanate-phenol-chloroform extraction (Trizol®, Invitrogen Life Technologies, San Diego, Calif.) from each frozen tissue section and the total RNA was then purified on an affinity resin (Rneasy®, Qiagen) according to the manufacturer's instructions. Total RNA was quantified by the absorbance at λ=260 nm (A260 nm) and the purity was estimated by the ratio A260 nm/A280 nm. Integrity of the RNA molecules was confirmed by non-denaturing agarose gel electrophoresis. RNA was stored at −80° C. until analysis. […] (ii) GeneChip® experiment: All GeneChip® experiments were conducted in the Genomics Factory EU following recommendations by the manufacturer of the GeneChip® system (Affymetrix, Expression Analysis Technical Manual (Affymetrix, Santa Clara, Calif., 2005). Human U133A genome arrays were used for transcript expression analysis. Double stranded cDNA was synthesized with a starting amount of approximately 5 μg full-length total RNA using the Superscript Choice System (Invitrogen Life Technologies) in the presence of a T7-(dT) 24 DNA oligonucleotide primer. Following synthesis, the cDNA was purified by phenol/chloroform/isoamyl alcohol extraction and ethanol precipitation. The purified cDNA was then transcribed in vitro using the BioArray® High Yield RNA Transcript Labeling Kit (ENZO) in the presence of biotinylated ribonucleotides form biotin labelled cRNA. The labelled cRNA was then purified on an affinity resin (Rneasy, Qiagen), quantified and fragmented. An amount of approximately 10 μg labelled cRNA was hybridized for approximately 16 hours at 45° C. to an expression probe array. The array was then washed and stained twice with streptavidin-phycoerythrin (Molecular Probes) using the GeneChip Fluidics Workstation 400 (Affymetrix). The array was then scanned twice using a confocal laser scanner (GeneArray Scanner®, Agilent) resulting in one scanned image. This resulting “.dat-file” was processed using the MASS program (Affymetrix) into a “.cel-file”. The “.cel file” was then transferred to tan Affymetrix GeneChip Laboratory Information Management System (LIMS) database, which is connected to a UNIX Sun Solaris server through a network filing system that allows for the average intensities for all probes cells (CEL file) to be downloaded into an Oracle database (NPGN). Raw data was converted to expression levels using a “target intensity” of 100. […] The data were checked for quality and loaded in the GeneSpring® software versions 5.0 (Silicon Genetics, Calif., US) for statistical analysis.
Quality control analysis of transcriptome data: The following quality measures were analysed for each sample: Scaling factor, background, percent present calls, AFFX-GAPDH 3′: AFFX-GAPDH 5′-ratio, AFFX-GAPDH 3′ variance, AFFX-Beta-actin 3′: AFFX-Beta-actin 5′-ratio.

Cc1ccc(Nc2c(F)cccc2Cl)c(CC(=O)O)c1 [COX189, Lumiracoxib]
1.7 fold: XCL1 (206366_x_at) avg fold change vs control
1.9 fold: STAT1 (AFFX-HUMISGF3A/M97935_MB_at) avg fold change vs control
1.1 fold: HFE (211332_x_at) avg fold change vs control | HLA-C (208812_x_at) avg fold change vs control | HLA-DRA (210982_s_at) avg fold change vs control | IFI30 (201422_at) avg fold change vs control | IFIT1 (203153_at) avg fold change vs control | IL27RA (205926_at) avg fold change vs control | JAK1 (214377_s_at) avg fold change vs control | LAIR1 (208071_s_at) avg fold change vs control | LILRB3 (210225_x_at) avg fold change vs control | PTPRC (207238_s_at) avg fold change vs control | TAPBP (208829_at) avg fold change vs control | TRGC2 (216920_s_at) avg fold change vs control
0.9 fold: HFE (211329_x_at) avg fold change vs control | ICAM1 (202638_s_at) avg fold change vs control | IFIT4 (204747_at) avg fold change vs control | IGF1 (209541_at) avg fold change vs control | LY86 (205859_at) avg fold change vs control | MAF (209348_s_at) avg fold change vs control | PLCL2 (216217_at) avg fold change vs control | PRG1 (201858_s_at) avg fold change vs control | PRG1 (201859_at) avg fold change vs control | TCTEL1 (201999_s_at) avg fold change vs control | VCAM1 (203868_s_at) avg fold change vs control
1.3 fold: HFE (211863_x_at) avg fold change vs control | HLA-A (211528_x_at) avg fold change vs control | HLA-A (211529_x_at) avg fold change vs control | HLA-A (215313_x_at) avg fold change vs control | HLA-B (208729_x_at) avg fold change vs control | HLA-B (211911_x_at) avg fold change vs control | HLA-DQB1 (211656_x_at) avg fold change vs control | HLA-DRB3 (209312_x_at) avg fold change vs control | HLA-DRB6 (217362_x_at) avg fold change vs control | IL2RG (204116_at) avg fold change vs control | IRF1 (202531_at) avg fold change vs control | TNFAIP3 (202644_s_at) avg fold change vs control | TNFSF6 (210865_at) avg fold change vs control | TRGC2 (211144_x_at) avg fold change vs control | XCL1 (214567_s_at) avg fold change vs control
2.0 fold: IFI44 (214453_s_at) avg fold change vs control
0.7 fold: LILRB1 (207857_at) avg fold change vs control
0.8 fold: LYN (210754_s_at) avg fold change vs control | PCOLCE (202465_at) avg fold change vs control | TLR1 (210176_at) avg fold change vs control | TLR2 (204924_at) avg fold change vs control
4.2 fold: IFI27 (202411_at) avg fold change vs control
1.5 fold: HLA-DRB1 (215193_x_at) avg fold change vs control | ISGF3G (203882_at) avg fold change vs control
1.0 fold: HHL (203020_at) avg fold change vs control | HLA-DQB1 (209823_x_at) avg fold change vs control | ICAM1 (215485_s_at) avg fold change vs control | IFITM3 (212203_x_at) avg fold change vs control | ITGB2 (202803_s_at) avg fold change vs control | KLKB1 (206541_at) avg fold change vs control | LILRB1 (211100_x_at) avg fold change vs control | LILRB3 (208594_x_at) avg fold change vs control | LY96 (206584_at) avg fold change vs control | PLSCR1 (202446_s_at) avg fold change vs control | PRC1 (218009_s_at) avg fold change vs control | SOCS3 (206360_s_at) avg fold change vs control | XLKD1 (219059_s_at) avg fold change vs control
1.6 fold: HLA-A (211530_x_at) avg fold change vs control | HLA-DQA1 (212671_s_at) avg fold change vs control | IL1A (208200_at) avg fold change vs control | IRF7 (208436_s_at) avg fold change vs control | LRMP (204674_at) avg fold change vs control | STAT1 (AFFX-HUMISGF3A/M97935_5_at) avg fold change vs control
1.2 fold: HFE (211866_x_at) avg fold change vs control | HLA-B (209140_x_at) avg fold change vs control | HLA-C (214459_x_at) avg fold change vs control | HLA-DMA (217478_s_at) avg fold change vs control | HLA-DMB (203932_at) avg fold change vs control | HLA-DRA (208894_at) avg fold change vs control | HLA-E (200905_x_at) avg fold change vs control | HLA-F (204806_x_at) avg fold change vs control | HLA-F (221875_x_at) avg fold change vs control | ICSBP1 (204057_at) avg fold change vs control | IFITM2 (201315_x_at) avg fold change vs control | INDO (210029_at) avg fold change vs control | INPP5D (203332_s_at) avg fold change vs control | LCP2 (205270_s_at) avg fold change vs control | PTPN22 (206060_s_at) avg fold change vs control | STAT1 (AFFX-HUMISGF3A/M97935_MA_at) avg fold change vs control | TNFAIP3 (202643_s_at) avg fold change vs control | TNFSF10 (202687_s_at) avg fold change vs control | TNFSF10 (202688_at) avg fold change vs control
0.6 fold: IGFBP4 (201508_at) avg fold change vs control
1.4 fold: HLA-C (216526_x_at) avg fold change vs control | HLA-DQB2 (212998_x_at) avg fold change vs control | HLA-E (217456_x_at) avg fold change vs control | IFIT2 (217502_at) avg fold change vs control | LCK (204890_s_at) avg fold change vs control | PLA2G4C (209785_s_at) avg fold change vs control | STAT1 (209969_s_at) avg fold change vs control
1.8 fold: HLA-DQB1 (211654_x_at) avg fold change vs control | cig5 (213797_at) avg fold change vs control
